Experimental data as given in patent US20060089395A1, “Nf-kb activation inhibitors” (priority 2002, published 2006).
Like-named read-outs stand apart in the source and are kept apart here.

System: NF-κ B
Assay: Inhibitory activity of NF-κ B activation, luciferase reporter assay in HepG2 under TNF-α stimulation
Assay type: cell-based, human
Procedure: Using a transfection reagent(Effectene; QIAGEN), the human hepatoma cell strain HepG2 was transfected with a plasmid(pNF κ B-Luc Reporter Plasmid; […]) which is integrated with an oligonucleotide having five tandem copies of NF-κ B binding sequences([…]) on a upstream region of firefly luciferase gene(Luc) according to the QIAGEN's protocol, and the cells were incubated for 6 to 24 hours. After the addition of TNF-α (40 ng/ml) in the presence or absence of a test compound, the cells were incubated for 4 hours, and intracellular luciferase activity was measured by using PicaGene LT (TOYO INK MFG Co., Ltd.) and a chemical luminescence measurement apparatus ([…]luor Plus; TECAN). The inhibitory ratio was measured as a ratio relative to the value of a luciferase activity in the absence of the test compound.

[1] = Homo sapiens, 1 μg/mL, HepG2, TNF-α (40 ng/ml), 4 hours, read-out: Inhibitory Ratio of NF-κ B Activation(%) Drug Concentration 1 μg/mL
[2] = Homo sapiens, 10 μg/mL, HepG2, TNF-α (40 ng/ml), 4 hours, read-out: Inhibitory Ratio of NF-κ B Activation(%) Drug Concentration 10 μg/mL
[3] = 1 μg/mL, HepG2, TNF-α (40 ng/ml), 4 hours
[4] = 10 μg/mL, HepG2, TNF-α (40 ng/ml), 4 hours

Row | SMILES | Inhibitory Ratio of NF-κ B Activation(%) Drug Concentration 1 μg/mL [3] [%] | Inhibitory Ratio of NF-κ B Activation(%) Drug Concentration 10 μg/mL [4] [%] | also measured
1 | O=C(Nc1cc(C(F)(F)F)ccc1C(F)(F)F)c1cc(Cl)ccc1O [Compound No.81, N-[2,5-bis(trifluoromethyl)phenyl]-5-chloro-2-hydroxybenzamide] |  |  | inhibition at 0.1 µg/mL (Homo sapiens, HepG2, 4 h, 0.1 μg/ml, comparison table, reporter assay, read-out: Inhibitory Ratio of NF-κB Activation (%) 0.1 μg/ml): 27%; inhibition at 1 µg/mL (Homo sapiens, HepG2, 4 h, 1 μg/ml, comparison table, reporter assay, read-out: Inhibitory Ratio of NF-κB Activation (%) 1 μg/ml): 95%; inhibition at 10 µg/mL (Homo sapiens, HepG2, 4 h, 10 μg/ml, comparison table, reporter assay, read-out: Inhibitory Ratio of NF-κB Activation (%) 10 μg/ml): 96.3%; inhibition at 1 µg/mL [1]: 95%; inhibition at 10 µg/mL [2]: 96.3%
2 | CCNC(=O)c1sc(NC(=O)c2cc(Br)ccc2O)nc1-c1ccccc1 [Compound No. 221] | 51.9 | 84.0 | 
3 | Cc1nc(-c2ccc(O)c(C(=O)Nc3cc(C(F)(F)F)cc(C(F)(F)F)c3)c2)cs1 [Compound No. 30, N-[3,5-Bis(trifluoromethyl)phenyl]-2-hydroxy-5-(2-methylthiazol-4-yl)benzamide] |  |  | inhibition at 1 µg/mL [1]: 82.1%; inhibition at 10 µg/mL [2]: 95.3%
4 | CC(C)C(=O)c1ccc(O)c(C(=O)Nc2cc(C(F)(F)F)cc(C(F)(F)F)c2)c1 [Compound No. 34, N-[3,5-Bis(trifluoromethyl)phenyl]-2-hydroxy-5-isobutyrylbenzamide] |  |  | inhibition at 1 µg/mL [1]: 90.7%; inhibition at 10 µg/mL [2]: 98.7%
5 | O=C(Nc1cc(C(F)(F)F)cc(C(F)(F)F)c1)c1cc(Cl)cnc1O [Compound No. 75] | 58.1 | 82.2 | 
6 | Cc1ccc(C(F)(F)F)cc1NC(=O)c1cc(Cl)ccc1O [compound 92] | 93.8 | 97.9 | 
7 | Cc1cccc(C(=O)Nc2cc(C(F)(F)F)cc(C(F)(F)F)c2)c1O [Compound No. 58, N-[3,5-bis(trifluoromethyl)phenyl]-2-hydroxy-3-methylbenzamide] |  |  | inhibition at 1 µg/mL [1]: 88.2%; inhibition at 10 µg/mL [2]: 95%
8 | CC(C)(C)c1ccc(C(C)(C)C)c(NC(=O)c2cc(Cl)ccc2O)c1 [Compound No. 134] | 89.1 | 96.3 | 
9 | CCOC(=O)c1sc(NC(=O)c2cc(-n3cccc3)ccc2O)nc1-c1ccccc1 [Compound No. 229] | 74.0 | 90.1 | 
10 | O=C(Nc1nc(-c2ccco2)c(-c2ccco2)o1)c1cc(Br)ccc1O [Compound No. 236, 5-Bromo-N-[4,5-bis(furan-2-yl)oxazol-2-yl]-2-hydroxybenzamide] |  |  | inhibition at 1 µg/mL [1]: 21.4%; inhibition at 10 µg/mL [2]: 56%
11 | O=C(Nc1cc(C(F)(F)F)cc(C(F)(F)F)c1)c1cccc(-c2ccccc2)c1O [Compound No. 249, N-[3,5-bis(trifluoromethyl)phenyl]-2-hydroxy-3-phenylbenzamide] |  |  | inhibition at 1 µg/mL [1]: 86.6%; inhibition at 10 µg/mL [2]: 90.7%
12 | Cc1ccc(O)c(C(=O)Nc2cc(C(C)(C)C)cc(C(C)(C)C)c2)c1 [Compound No. 147] | 38.9 | 91.0 | 
13 | N#Cc1ccc(O)c(C(=O)Nc2cc(C(F)(F)F)cc(C(F)(F)F)c2)c1 [compound 9, N-[3,5-Bis(trifluoromethyl)phenyl]-5-cyano-2-hydroxybenzamide] |  |  | inhibition at 1 µg/mL [1]: 92.2%; inhibition at 10 µg/mL [2]: 99.6%
14 | Cc1cc(Oc2ccc(C(F)(F)F)cc2NC(=O)c2cc(Cl)ccc2O)cc(C)c1Cl [Compound No. 115] | 90.7 | 98.4 | 
15 | O=C(Nc1cc(C(F)(F)F)ccc1Cl)c1cc([N+](=O)[O-])ccc1O [Compound No. 99] | 54.3 | 98.0 | 
16 | Cc1ccc(O)c(C(=O)Nc2cc(C(F)(F)F)ccc2C)c1 [Compound No. 102] | 89.3 | 98.3 | 
17 | Cc1ccc(S(=O)(=O)c2ccc(Cl)cc2NC(=O)c2cc(Cl)ccc2O)cc1 [Compound No. 168] | 46.7 | 97.8 | 
18 | O=C(Nc1cc(C(F)(F)F)cc(C(F)(F)F)c1)c1scc(Br)c1O [Compound No. 74, 4-Bromo-3-hydroxy-N-[3,5-bis(trifluoromethyl)phenyl]thiophene-2-carboxamide] |  |  | inhibition at 1 µg/mL [1]: 64%; inhibition at 10 µg/mL [2]: 97.5%

The next lines start with results.

Row | Inhibitory Ratio of NF-κ B Activation(%) Drug Concentration 1 μg/mL [3] [%] | Inhibitory Ratio of NF-κ B Activation(%) Drug Concentration 10 μg/mL [4] [%] | SMILES | also measured
19 | 91.4 | 95.1 | O=C(Nc1cc(Cl)cc(Cl)c1)c1cc(Br)cc(Br)c1O [Compound No. 128] | 
20 | 69.6 | 96.5 | COc1ccc(C)c(NC(=O)c2cc(Cl)ccc2O)c1 [Compound No. 160] | 
21 | 59.7 | 98.5 | N#CC(=Cc1ccc(O)c(C(=O)Nc2cc(C(F)(F)F)cc(C(F)(F)F)c2)c1)C(=O)O [Compound No. 18] | 
22 | 83.6 | 94.4 | Cc1sc(NC(=O)c2cc(Br)ccc2O)nc1-c1ccccc1 [Compound No. 192] | 
23 | 82.4 | 97.9 | COc1ccc(-c2ccccc2)cc1NC(=O)c1cc(Cl)ccc1O [Compound No. 141] | 
24 | 91.8 | 96.8 | O=C(Nc1cc(F)cc(F)c1)c1cc(Br)ccc1O [Compound No. 123] | 
25 | 26.1 | 90.3 | O=C(Nc1nnc(C(F)(F)F)s1)c1cc(Br)ccc1O [Compound No. 238] | 
26 | 95.1 | 96.9 | O=C(Nc1cc(Cl)ccc1Cl)c1cc(Cl)ccc1O [Compound No. 122] | 
27 |  | 95.1 | O=C(Nc1cc(Cl)cc(Cl)c1)c1cc2ccccc2cc1O [Compound No. 181] | 
28 | 86.4 | 98.3 | COc1ccc(C(C)(C)c2ccccc2)cc1NC(=O)c1cc(Cl)ccc1O [Compound No. 173] | 
29 | 97.6 | 98.3 | CCC(C)(C)c1ccc(Oc2ccccc2)c(NC(=O)c2cc(Cl)ccc2O)c1 [Compound No. 164] | 
30 | 92.5 | 93.4 | O=C(Nc1cc(F)ccc1F)c1cc(Cl)ccc1O [Compound No. 179] | 
31 | 31.6 | 95.9 | Cc1ccc(S(=O)(=O)c2ccc(Cl)c(NC(=O)c3cc(Cl)ccc3O)c2)cc1 [Compound No. 169] | 
32 | 69.9 | 96.0 | CC(=O)Nc1cc(O)c(C(=O)Nc2cc(C(F)(F)F)cc(C(F)(F)F)c2)cc1Cl [Compound No. 50, 4-Acetylamino-N-[3,5-bis(trifluoromethyl)phenyl]-5-chloro-2-hydoxybenzamide] | 
33 |  | 89.7 | COc1ccc(C)cc1NC(=O)c1cc(Cl)ccc1O [Compound No. 178] | 
34 | 85.4 | 97.1 | O=C(Nc1cc(Cl)cc(Cl)c1)c1cc(I)ccc1O [Compound No. 127] | 
35 | 96.5 | 99.2 | CC(=O)Oc1ccc(Cl)cc1C(=O)Nc1cc(C(F)(F)F)cc(C(F)(F)F)c1 [compound 5] | 
36 | 96.0 | 99.5 | CCCCc1ccc([N+](=O)[O-])cc1NC(=O)c1cc(Cl)ccc1O [Compound No. 176] | 
37 | 90.6 | 98.1 | COc1ccc(Oc2ccccc2)cc1NC(=O)c1cc(Cl)ccc1O [Compound No. 171] | 
38 | 95.8 | 99.4 | Cc1ccc(O)c(C(=O)Nc2cc(C(F)(F)F)cc(C(F)(F)F)c2)c1 [compound 10] | 
39 | 74.9 | 99.1 | COC(=O)C(C#N)=Cc1ccc(O)c(C(=O)Nc2cc(C(F)(F)F)cc(C(F)(F)F)c2)c1 [Compound No. 17, 3-({N-[3,5-bis(trifluoromethyl)phenyl]carbamoyl}-4-hydroxyphenyl)-2-cyanoacrylic acid methyl ester] | 
40 | 53.3 | 90.1 | C#Cc1ccc(O)c(C(=O)Nc2cc(C(F)(F)F)cc(C(F)(F)F)c2)c1 [Compound No. 21] | 
